Values quoted from earlier work, collected in US20230392195A1, “SYNTHETIC LETHALITY-MEDIATED PRECISION ONCOLOGY VIA TUMOR TRANSCRIPTOME” (The United States of America, as Represented by the …, priority 2020, published 2023).

System: advanced solid tumors
Conditions: individual patient case: everolimus in an neuroendocrine cancer patient, cabozantinib in a colon cancer patient

## CO[C@H]1C[C@@H]2CC[C@@H](C)[C@@](O)(O2)C(=O)C(=O)N2CCCC[C@H]2C(=O)O[C@H]([C@H](C)C[C@@H]2CC[C@@H](OCCO)[C@H](OC)C2)CC(=O)[C@H](C)/C=C(\C)[C@@H](O)[C@@H](OC)C(=O)[C@H](C)C[C@H](C)/C=C/C=C/C=C/1C [everolimus]
  response to the therapy in the trial: responded
